Measured values from the supplement of paper PMC10307832.

Columns and labels:
Assay in all cases: relative viability (nuclei count vs DMSO), 5 days (fraction); higher = more cells survive
BEN = tested on: BEN
Procedure, shortened: (§1)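 Cells from lung cancer lines were seeded into 1536-well plates and, one day later, dosed by pin tool. Treatments were either a single drug or a fixed dose of an anchor drug with five library-drug doses (not always all listed) in √10 steps. After 5 days, nuclei were stained in a one-step fixation (final 0.05% Triton X-100, 1% formaldehyde, 1 ug/ml Hoechst) and counted on 4× images, and relative viability is the treated-to-vehicle nuclei ratio, as the median of duplicate plates.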

NCI-H3122 = tested on: NCI-H3122
Procedure, shortened: as §1

NCI-H2023 = tested on: NCI-H2023
Procedure, shortened: as §1

CAL-12T = tested on: CAL-12T
Procedure, shortened: as §1

HCC-44 = tested on: HCC-44
Procedure, shortened: as §1

NCI-H647 = tested on: NCI-H647
Procedure, shortened: as §1

SK-LU-1 = tested on: SK-LU-1
Procedure, shortened: as §1

NCI-H322M = tested on: NCI-H322M
Procedure, shortened: as §1

NCI-H2087 = tested on: NCI-H2087
Procedure, shortened: as §1

NCI-H1355 = tested on: NCI-H1355
Procedure, shortened: as §1

NCI-H2405 = tested on: NCI-H2405
Procedure, shortened: as §1

NCI-H2228 = tested on: NCI-H2228
Procedure, shortened: as §1

LCLC-103H = tested on: LCLC-103H
Procedure, shortened: as §1

NCI-H1395 = tested on: NCI-H1395
Procedure, shortened: as §1

LXF-289 = tested on: LXF-289
Procedure, shortened: as §1

201T = tested on: 201T
Procedure, shortened: as §1

LCLC-97TM1 = tested on: LCLC-97TM1
Procedure, shortened: as §1

HOP-62 = tested on: HOP-62
Procedure, shortened: as §1

NCI-H1437 = tested on: NCI-H1437
Procedure, shortened: as §1

RERF-LC-KJ = tested on: RERF-LC-KJ
Procedure, shortened: as §1

NCI-H727 = tested on: NCI-H727
Procedure, shortened: as §1

NCI-H1650 = tested on: NCI-H1650
Procedure, shortened: as §1

HCC-827 = tested on: HCC-827
Procedure, shortened: as §1

NCI-H1793 = tested on: NCI-H1793
Procedure, shortened: as §1

Work on `Clc1ccc(Nc2nnc(Cc3ccncc3)c3ccccc23)cc1` [Vatalanib] + O=C(c1cc(Cc2n[nH]c(=O)c3ccccc23)ccc1F)N1CCN(C(=O)C2CC2)CC1 [Olaparib] (partner 8 µM) yielded a relative viability (BEN; first compound 0.04 µM) of 1.03, a relative viability (BEN; first compound 0.1265 µM) of 1.01 and a relative viability (BEN; first compound 0.4 µM) of 1.31. The relative viability (BEN; first compound 1.265 µM) was 1.04, the relative viability (BEN; first compound 4 µM) was 0.877 and the relative viability (NCI-H3122; first compound 0.04 µM) was 0.593. It also gave a relative viability (NCI-H3122; first compound 0.1265 µM) of 0.668, a relative viability (NCI-H3122; first compound 0.4 µM) of 0.689 and a relative viability (NCI-H3122; first compound 1.265 µM) of 0.592. The relative viability (NCI-H3122; first compound 4 µM) was 0.598, the relative viability (NCI-H2023; first compound 0.04 µM) was 0.403 and the relative viability (NCI-H2023; first compound 0.1265 µM) was 0.444. For the same compound, the relative viability (NCI-H2023; first compound 0.4 µM) was 0.447, the relative viability (NCI-H2023; first compound 1.265 µM) was 0.48 and the relative viability (NCI-H2023; first compound 4 µM) was 0.422. It also gave a relative viability (CAL-12T; first compound 0.04 µM) of 0.692, a relative viability (CAL-12T; first compound 0.1265 µM) of 0.645 and a relative viability (CAL-12T; first compound 0.4 µM) of 0.773. For the same compound, the relative viability (CAL-12T; first compound 1.265 µM) was 0.697, the relative viability (CAL-12T; first compound 4 µM) was 0.672 and the relative viability (HCC-44; first compound 0.04 µM) was 1.05. For the same compound, the relative viability (HCC-44; first compound 0.1265 µM) was 0.971, the relative viability (HCC-44; first compound 0.4 µM) was 0.978 and the relative viability (HCC-44; first compound 1.265 µM) was 0.998. For the same compound, the relative viability (HCC-44; first compound 4 µM) was 0.996, the relative viability (NCI-H647; first compound 0.04 µM) was 0.612 and the relative viability (NCI-H647; first compound 0.1265 µM) was 0.582. The relative viability (NCI-H647; first compound 0.4 µM) was 0.582, the relative viability (NCI-H647; first compound 1.265 µM) was 0.584 and the relative viability (NCI-H647; first compound 4 µM) was 0.531. It also gave a relative viability (SK-LU-1; first compound 0.04 µM) of 0.438, a relative viability (SK-LU-1; first compound 0.1265 µM) of 0.449 and a relative viability (SK-LU-1; first compound 0.4 µM) of 0.52. It also gave a relative viability (SK-LU-1; first compound 1.265 µM) of 0.467, a relative viability (SK-LU-1; first compound 4 µM) of 0.365 and a relative viability (NCI-H322M; first compound 0.04 µM) of 0.452. The relative viability (NCI-H322M; first compound 0.1265 µM) was 0.662, the relative viability (NCI-H322M; first compound 0.4 µM) was 0.781 and the relative viability (NCI-H322M; first compound 4 µM) was 0.778. It also gave a relative viability (NCI-H2087; first compound 0.04 µM) of 0.461, a relative viability (NCI-H2087; first compound 0.1265 µM) of 0.542 and a relative viability (NCI-H2087; first compound 0.4 µM) of 0.682. For the same compound, the relative viability (NCI-H2087; first compound 1.265 µM) was 0.519, the relative viability (NCI-H2087; first compound 4 µM) was 0.633 and the relative viability (NCI-H1355; first compound 0.04 µM) was 0.732. For the same compound, the relative viability (NCI-H1355; first compound 0.1265 µM) was 0.79, the relative viability (NCI-H1355; first compound 0.4 µM) was 0.809 and the relative viability (NCI-H1355; first compound 1.265 µM) was 0.699. For the same compound, the relative viability (NCI-H1355; first compound 4 µM) was 0.706, the relative viability (NCI-H2405; first compound 0.04 µM) was 0.808 and the relative viability (NCI-H2405; first compound 0.1265 µM) was 0.807. The relative viability (NCI-H2405; first compound 0.4 µM) was 0.957, the relative viability (NCI-H2405; first compound 4 µM) was 0.87 and the relative viability (NCI-H2228; first compound 0.04 µM) was 0.648. It also gave a relative viability (NCI-H2228; first compound 0.1265 µM) of 0.772, a relative viability (NCI-H2228; first compound 0.4 µM) of 0.816 and a relative viability (NCI-H2228; first compound 1.265 µM) of 0.654. The relative viability (NCI-H2228; first compound 4 µM) was 0.598, the relative viability (LCLC-103H; first compound 0.04 µM) was 0.746 and the relative viability (LCLC-103H; first compound 0.1265 µM) was 0.706. For the same compound, the relative viability (LCLC-103H; first compound 0.4 µM) was 0.749, the relative viability (LCLC-103H; first compound 1.265 µM) was 0.746 and the relative viability (LCLC-103H; first compound 4 µM) was 0.764. The relative viability (NCI-H1395; first compound 0.04 µM) was 0.448, the relative viability (NCI-H1395; first compound 0.1265 µM) was 0.456 and the relative viability (NCI-H1395; first compound 0.4 µM) was 0.489. For the same compound, the relative viability (NCI-H1395; first compound 4 µM) was 0.437, the relative viability (LXF-289; first compound 0.04 µM) was 1.04 and the relative viability (LXF-289; first compound 0.1265 µM) was 1. For the same compound, the relative viability (LXF-289; first compound 0.4 µM) was 1.13, the relative viability (LXF-289; first compound 1.265 µM) was 0.975 and the relative viability (LXF-289; first compound 4 µM) was 1.03. For the same compound, the relative viability (201T; first compound 0.04 µM) was 0.833, the relative viability (201T; first compound 0.1265 µM) was 0.83 and the relative viability (201T; first compound 0.4 µM) was 0.904. The relative viability (201T; first compound 1.265 µM) was 0.842, the relative viability (201T; first compound 4 µM) was 0.83 and the relative viability (LCLC-97TM1; first compound 0.04 µM) was 0.357. For the same compound, the relative viability (LCLC-97TM1; first compound 0.1265 µM) was 0.375, the relative viability (LCLC-97TM1; first compound 0.4 µM) was 0.338 and the relative viability (LCLC-97TM1; first compound 1.265 µM) was 0.39. For the same compound, the relative viability (LCLC-97TM1; first compound 4 µM) was 0.345, the relative viability (HOP-62; first compound 0.04 µM) was 0.385 and the relative viability (HOP-62; first compound 0.1265 µM) was 0.389. The relative viability (HOP-62; first compound 0.4 µM) was 0.523, the relative viability (HOP-62; first compound 1.265 µM) was 0.41 and the relative viability (HOP-62; first compound 4 µM) was 0.419. It also gave a relative viability (NCI-H1437; first compound 0.04 µM) of 0.67, a relative viability (NCI-H1437; first compound 0.1265 µM) of 0.625 and a relative viability (NCI-H1437; first compound 0.4 µM) of 0.679. For the same compound, the relative viability (NCI-H1437; first compound 1.265 µM) was 0.625, the relative viability (NCI-H1437; first compound 4 µM) was 0.606 and the relative viability (RERF-LC-KJ; first compound 0.04 µM) was 0.879. The relative viability (RERF-LC-KJ; first compound 0.1265 µM) was 1.04, the relative viability (RERF-LC-KJ; first compound 0.4 µM) was 0.913 and the relative viability (RERF-LC-KJ; first compound 1.265 µM) was 0.832. It also gave a relative viability (RERF-LC-KJ; first compound 4 µM) of 0.882, a relative viability (NCI-H727; first compound 0.1265 µM) of 0.772 and a relative viability (NCI-H727; first compound 0.4 µM) of 0.761. The relative viability (NCI-H727; first compound 1.265 µM) was 0.818, the relative viability (NCI-H727; first compound 4 µM) was 0.758 and the relative viability (NCI-H1650; first compound 0.04 µM) was 0.985. The relative viability (NCI-H1650; first compound 0.1265 µM) was 0.734, the relative viability (NCI-H1650; first compound 0.4 µM) was 0.852 and the relative viability (NCI-H1650; first compound 1.265 µM) was 0.74. The relative viability (NCI-H1650; first compound 4 µM) was 0.798, the relative viability (HCC-827; first compound 0.04 µM) was 0.56 and the relative viability (HCC-827; first compound 0.1265 µM) was 0.655. The relative viability (HCC-827; first compound 1.265 µM) was 0.534, the relative viability (HCC-827; first compound 4 µM) was 0.638 and the relative viability (NCI-H1793; first compound 0.04 µM) was 0.871. The relative viability (NCI-H1793; first compound 0.1265 µM) was 0.713, the relative viability (NCI-H1793; first compound 0.4 µM) was 1.02 and the relative viability (NCI-H1793; first compound 1.265 µM) was 0.788. The relative viability (NCI-H1793; first compound 4 µM) was 0.78.
